Consider five compounds from patent publication US20260015311A1, “AMINO LIPID COMPOUND, PREPARATION METHOD THEREFOR, AND USE THEREOF” (SHENZHEN SHENXIN BIOTECHNOLOGY CO., LTD., priority 2022, published 2026).

In data set [1] the test system is Fluc mRNA. Put plainly: In vivo delivery of luciferase mRNA (Fluc mRNA) by lipid nanoparticles, living imaging. Also noted: species or system BALB/c mice. Particulars: after 12 hours, total fluorescence. The protocol:
(§1) The amino lipid compounds of the present disclosure were mixed with DOPE, cholesterol, and PEG2000-DMG in a molar ratio of 45:10:42.5:2.5 and dissolved in absolute ethanol. By using a microinjection pump, the resultant ethanol solution and a sodium acetate solution (50 mM, pH=4.0) were mixed in a ratio of 1:3 in a microfluidic chip to prepare a crude solution of lipid nanoparticles, which were then dialyzed in 1×PBS at a controlled temperature of 4° C. for 6 h using a dialysis box (Fisher, MWCO 20,000), and filtered through a 0.22 μm microporous filter membrane before use.
(§2) The formulation method was the same as the formulation method 1, except that the molar ratio of the amino lipid compounds to DSPC, cholesterol and PEG2000-DMG was 50:10:38.5:1.5.
The lipid nanoparticles prepared according to the above formulation method 1 or 2 were used in the biological experiments below for evaluating the performances of in vivo delivery of luciferase mRNA (Fluc mRNA). For the lipid nanoparticles obtained in the formulation method 1, the mass ratio of the amino lipid compounds to the luciferase mRNA was about 10:1, and the lipid nanoparticles were administered subcutaneously; and the lipid nanoparticles obtained in the formulation method 2 were administered by tail vein and intramuscular injection.
6-week-old female BALB/c mice weighed about 20 g were selected and fed in a SPF-grade feeding room. Animal tests were conducted strictly according to the guidelines of National Health institutions and the requirements of animal ethics.
(§3) 9 mice were assigned randomly to each group and injected with the lipid nanoparticles at a dosage of 0.5 mg/kg by three administration routes, i.e., subcutaneous, intramuscular and tail vein injection (three mice for each administration route). After 12 hours, D-luciferin potassium salt (200 μL, 10 mg/mL) was injected into each mouse through the tail vein. After 10 minutes, the total fluorescence intensity of each mouse was observed on a living imaging system (IVIS-200, Xenogen) and taken photographs for record. The expression intensities of Fluc mRNA delivered by representative amino lipid compounds through the three administration routes are shown in Table 2-4. MC3 was used as a control and SM102 was used as a comparative compound.

Another data set relates to influenza mRNA vaccine. Put plainly: In vivo delivery of influenza mRNA vaccine and immunity, IgG ELISA. On the set-up: species or system BALB/c mice. The note with it: influenza mRNA LNP, injected subcutaneously 0.5 mg/kg Day 0 and Day 7, serum Day 21, FIG. 2.
The nature of data set [2]: Stability of lipid nanoparticles at 25° C., DLS particle size and PDI. In kind it is physicochemical. The note with it: for particle size: preparation day (week 0). The procedure: as §1
(§4) Preparation of Lipid Nanoparticles: The Formulation Method 1 was Used to Prepare LNPs for Subcutaneous Administration.
Characterization of lipid nanoparticles: The particle size and PDI of the prepared lipid nanoparticles were measured by Nano-ZSZEN 3600 (Malvern). 40 μL of the LNP solution was taken for particle size measurement with circulation for three times, 30 seconds for each circulation.
(§5) The particle size measurements were carried out on the day of preparation (week 0), and after one week (week 1), two weeks (week 2), and four weeks (week 4) of storage at 25° C., and the expression intensities of Fluc mRNA delivered by subcutaneous administration were determined on the day of preparation (week 0) and after four weeks (week 4).

The next data set deals with liver. Briefly: Targeting assay, fluorescence in liver after intramuscular injection. In kind it is in vivo, mice. Particulars: 15 μg mRNA per animal, 6 h after injection, dissected liver. The procedure:
The lipids were mixed with DSPC, CHO-HP, M-DMG2000 (i.e. PEG2000-DMG) in a molar ratio of 50:10:38.5:1.5 and dissolved in absolute ethanol. mRNA was dissolved in a sodium acetate solution (0.2M, pH=5.0). The samples of various prescriptions were prepared at a water phase:alcohol phase=9 ml/min: 3 ml/min by using a microfluidic equipment (MPE-L2) and a chip (SN.000035). The two phases were mixed by injecting them into the microfluidic chip according to the interface requirements, and then the drug solution was loaded into a 100KD dialysis bags, immersed in a beaker containing 1 L dialysis solution and wrapped with aluminum foil, and dialyzed at 100 rpm for 1 h at room temperature, and then the dialysis solution was replaced and the dialysis continued for 1 h.
Formulation of dialysis solution: 1×PBS+8% sucrose solution: 2 packets of 1×PBS powder were taken into a beaker, dissolved with 2 L DEPC water, added with 160 g of sucrose additionally, and mixed to obtain the 1×PBS+8% sucrose solution.
The mass ratio of mRNA:Lipids in the obtained lipid nanoparticles were about 1:10.
Fluorescent protein-encoding mRNA-LNP preparations containing Compound (I-6-II), MC3 or SM102, respectively were prepared by using the formulation method of mRNA lipid nanoparticle (LNP) preparations as described above, selecting a fluorescent protein-encoding mRNA as the mRNA and the compound (I-6-II), MC3 or SM102, respectively as the lipid.
Each preparation to be tested was administered to mice by intramuscular injection, with each animal receiving 15 μg mRNA preparation sample. 6 h after sample injection, the mice were anesthetized by isoflurane inhalation, and injected intraperitoneally with 200 μL of D-Luciferin (concentration 10 mg/ml) luciferase development substrate. […] After development of living imaging of the intramuscularly injected animals, they were immediately dissected, followed by observation of the fluorescence in the liver immediately after the dissection.

In data set [3] the test system is Fluc mRNA. Briefly: Stability of lipid nanoparticles at 25° C., subcutaneous expression of Fluc mRNA. The data set is classed as in vivo, mice. Particulars: for Fluc expression change after four weeks: 25° C., week 4 versus week 0. The protocol:
as §1, §3, §4, §5

The next data set deals with OVA protein. Briefly: In vivo delivery of ovalbumin mRNA and immunity, IgG ELISA. Also noted: species or system BALB/c mice. Particulars: OVA mRNA LNP, injected intramuscularly 0.5 mg/kg Day 0 and Day 7, serum Day 21, FIG. 1. The procedure:
as §1, with “compounds of formula (I)” for “compounds”, “of 50:10:38.5:1.5” for “of 45:10:42.5:2.5”, “ethanol. Ovalbumin mRNA (OVA mRNA) was dissolved in a sodium acetate solution (50 mM, pH=4.0).” for “ethanol.”, “and the” for “and a”
The mass ratio of the amino lipid compounds to the ovalbumin mRNA (OVA mRNA) in the obtained lipid nanoparticles was about 10:1.
6-week-old female BALB/c mice weighed about 20 g were selected and fed in a SPF-grade feeding room. Animal tests were conducted strictly according to the guidelines of National Health institutions and the requirements of animal ethics. […]
A flat-bottomed 96-well plate (Nunc) was pre-coated with OVA protein at a concentration of 0.5 μg protein per well in a 50 mM carbonate buffer (pH 9.6) at 4° C., and allowed to stay overnight, and then blocked with 5% glycine. […] After addition of the HRP substrate, the absorbance at 450 nm was measured on an ELISA plate reader (Bio-Rad).

Data set [4] relates to Fluc mRNA. Briefly: Activity of lipid nanoparticles of formulation method 2, Fluc mRNA by intramuscular administration. In kind it is in vivo, BALB/c mice. The procedure:
as §2, §3
Preparation of Lipid Nanoparticles: LNPs were Prepared Using the Formulation Method 2 for Intramuscular Administration.
The measurement method was the same as that of Test Example 1.

[5] abbreviates: subcutaneous administration, formulation method 1, 0.5 mg/kg.
Where [6] appears, read: intramuscular injection, formulation method 2, 0.5 mg/kg.
Where [7] appears, read: tail vein administration, formulation method 2, 0.5 mg/kg.
The mark [8] stands for this setting: week 0, subcutaneous administration.
Setting [9] is: week 4, storage at 25° C., subcutaneous administration.

Take `CCCCCCCC/C=C\CCCCCCCC(=O)OCCCCCCCCN(CCCCCCOC(=O)C(CCCCCC)CCCCCCCC)C1CCCC(O)C1` (stereo not drawn) [Compound 10]: the “Fluorescence intensity (expression intensity of Fluc mRNA)” value in the data set on Fluc mRNA [1] (setting [5]) is given as 1.1E + 07. For the same compound, the IgG antibody titers entry in the data set with influenza mRNA vaccine is recorded as “comparable to those of SM102”.
Regarding `CCCCCCCCCOC(=O)CCCCCCCN(CCO)CCCCCCCC(=O)OC(CCCCCCCC)CCCCCCCC` [SM102, reference compound], the entries for the “Fluorescence intensity (expression intensity of Fluc mRNA)” value in the data set with Fluc mRNA [1] (setting [6]), with Fluc mRNA [1] (setting [5]) and in the data set on Fluc mRNA [1] (setting [7]) were 4.6E + 07, 2.4E + 07 and 7.4E + 06, respectively. Moreover, the particle size result in data set [2] is on record as “about 100 nm”. In addition, the Z-Average was 120 nm·days in data set [2] (week 0 (day of preparation)); 145 nm·days in data set [2] (week 1, storage at 25° C.); 195 nm·days in data set [2] (week 2, storage at 25° C.); 245 nm·days in data set [2] (week 4, storage at 25° C.). The PDI amounted to 0.16 in data set [2] (week 1, storage at 25° C.); 0.21 in data set [2] (week 2, storage at 25° C.); 0.28 in data set [2] (week 4, storage at 25° C.). For the same compound, in the data set on liver, the “fluorescence intensity in liver” value turned out to be 3.23E+06. Besides, the “Fluc expression change after four weeks” value in the data set on Fluc mRNA [3] is given as “decreased significantly”. Besides, the “Fluc Expression intensities” value is 2.4E+07 with Fluc mRNA [3] (setting [8]) and 3.6E+06 in the data set with Fluc mRNA [3] (setting [9]).
For the compound `CCCCC/C=C\C/C=C\CCCCCCCCC(CCCCCCCC/C=C\C/C=C\CCCCC)OC(=O)CCCN(C)C` [MC3, reference compound], the “Fluorescence intensity (expression intensity of Fluc mRNA)” value with Fluc mRNA [1] (setting [6]) is recorded as 2.7E + 07; in the data set with Fluc mRNA [1] (setting [5]), 3.7E + 06; in the data set with Fluc mRNA [1] (setting [7]), 2.7E + 07. For the same compound, in the data set with liver, the “fluorescence intensity in liver” value stood at 1.23E+05. Further, the IgG antibody titers entry in the data set on influenza mRNA vaccine is “lowest IgG antibody titers”.
Turning to `CCCCCCCCCCCOC(=O)CCCCCN(CCCCCCCC(=O)OC(CCCCCCCC)CCCCCCCC)C1CCCC(O)C1` (stereo not drawn) [Compound 7], the “Fluorescence intensity (expression intensity of Fluc mRNA)” value in the data set on Fluc mRNA [1] (setting [6]) worked out at 3.7E + 07; with Fluc mRNA [1] (setting [5]) it was 2.9E + 08; with Fluc mRNA [1] (setting [7]), 2.9E + 07; in the data set with Fluc mRNA [4], 3.7E + 07. Further, the “particle size change after four weeks of storage” value in data set [2] (25° C., week 4 versus week 0) was “did not increase significantly”. For the same compound, the particle size result in data set [2] is listed as “about 100 nm”. Moreover, the Z-Average in data set [2] (week 0 (day of preparation)) stood at 95 nm·days; in data set [2] (week 1, storage at 25° C.) it was 105 nm·days; in data set [2] (week 2, storage at 25° C.), 115 nm·days; in data set [2] (week 4, storage at 25° C.), 120 nm·days. Also, the PDI in data set [2] (week 1, storage at 25° C.) amounted to 0.05; in data set [2] (week 2, storage at 25° C.) it was 0.06. Further, in the data set with OVA protein, the IgG antibody titers entry is listed as “stronger immune response”. In addition, the “Fluc expression change after four weeks” value in the data set on Fluc mRNA [3] was “did not decrease significantly”. Also, the “Fluc Expression intensities” value in the data set with Fluc mRNA [3] (setting [8]) was 2.9E+08; in the data set with Fluc mRNA [3] (setting [9]) it was 2.6E+08.
Turning to `CCCCCCCCCCCOC(=O)CCCCCN(CCCCCCCC(=O)OC(CCCCCCCC)CCCCCCCC)C1CC(O)C1` (stereo not drawn) [Compound 2], the “Fluorescence intensity (expression intensity of Fluc mRNA)” value in the data set with Fluc mRNA [1] (setting [6]) was found to be 1.3E + 07; in the data set with Fluc mRNA [1] (setting [5]), 1.9E + 08; in the data set on Fluc mRNA [1] (setting [7]), 2.9E + 06. For the same compound, the IgG antibody titers result with OVA protein was “comparable to those of MC3 and SM102”.
